Key:
Lewis carcinoma = test: Anti-neoplastic and anti-metastatic activity in mice with Lewis carcinoma implanted to the paw; format: in vivo, male mice F1 (CBA×C57B1/6); settings: for Number of lung metastases: day 21 after tumor implantation; for Growth of Lewis carcinoma in mice: 5 and 25 mg/kg, inhibition is dose-related
Description: The efficacy of anti-neoplastic (anti-proliferative) and anti-metastatic properties of products 1 and 2 was shown in the experiment on male mice F1 (CBA×CS7B1/6) with Lewis carcinoma implanted to the paw following intragastric administration in two doses: 5 mg/kg and 25 mg/kg for 3 weeks immediately after implantation and within 1 week prior tumor transplantation.
Test system. To examine anti-neoplastic (anti-proliferative) and anti-metastatic properties of products 1 and 2, 120 hybrid male mice of the first generation CBA×[…] were used: each group of 10-12 mice. Lewis carcinoma was implanted to a hind paw, in the amount ˜10^6 cells (˜0.2 cm^3) Doses and dosing schemes for products 1 and 2. Route of the product administration—per os provided addition of products 1 and 2 to drinking water which was given to animals. Products 1 and 2 were added to drinking water by two schemes: within 3 weeks immediately after implantation and within 4 weeks with the dosing started prior implantation.
Anti-neoplastic (anti-proliferative) and anti-metastatic activity of products 1 and 2 was assessed based on change of tumor volume and number of lung metastases. The number of metastases was assessed on day 21 after tumor implantation (day 28 after the administration of products 1 and 2 by the 1-st scheme). For that, lungs were withdrawn in animals decapitated under anesthesia and transferred to Bouin's fluid. Metastases were visually counted. The volume of neoplasm was assessed by ellipsoid equation (1). […]
[formula] where: d1, d2, d3—mutually perpendicular tumor sizes.

[1] = tested on: hepatic tumors induced by DENA; test: Preventive effect on hepatic neoplasms induced by N-diethyl nitrosamine (DENA) in rats; format: in vivo, male Wistar rats; settings: for Preventive effect in relation to hepatic tumors: 25 mg/kg a day, DENA carcinogenesis in rats; for Weight of rats / Number of animals with induced tumors / Number of hepatic tumors: 25 mg/kg/day in drinking water, DENA 30 mg/kg/week i.p.; for Weight of rats: from 3 weeks prior to DENA and then 2.5 months; for Number of animals with induced tumors: 16 animals in group; for Number of hepatic tumors: counted visually on liver surface
Description: The efficacy of preventive effects of Products 1 and 2 in relation to hepatic neoplasms was shown in the experiment on male Wistar rats which were intraperitoneally administered with chemical carcinogen-N-diethyl nitrosamine (DENA) (Nitrosodiethylamin (N—N)). The nature of the invention is explained with the execution example.
To solve the task, 3 groups of male Wistar rats weighing 150-200 g were formed, 16 in each. Rats of the control group were administered intraperitoneally with DENA in dose 30 mg/kg/week. The dosage was administered in 2 doses: Monday and Thursday. The animals of test groups were similarly administered with DENA. Rats of test groups took drinking water in addition to Products 1 and 2 assuming that they took 25 mg/kg of body weight/day with water. The animals started taking the products 3 weeks prior administration of N-diethyl nitrosamine to develop protective background in animal body and subsequently for 2.5 months.
During the experiment, weight of rats was controlled. After autopsy of animals, liver was weighted, tumors were visually counted on its surface and photographed.

[2] = tested on: neuroblastoma N2A cell culture; settings: cited from earlier work
[3] = 5 mg/kg per os in drinking water, after implantation (scheme 2), day 1
[4] = 5 mg/kg per os in drinking water, after implantation (scheme 2), day 7
[5] = 5 mg/kg per os in drinking water, after implantation (scheme 2), day 15
[6] = 5 mg/kg per os in drinking water, prior and after implantation (scheme 1), day 1
[7] = 5 mg/kg per os in drinking water, prior and after implantation (scheme 1), day 7
[8] = 5 mg/kg per os in drinking water, prior and after implantation (scheme 1), day 15
[9] = 5 mg/kg, after implantation (scheme 2)
[10] = 5 mg/kg, prior and after implantation (scheme 1)
[11] = 25 mg/kg per os in drinking water, after implantation (scheme 2), day 1
[12] = 25 mg/kg per os in drinking water, after implantation (scheme 2), day 7
[13] = 25 mg/kg per os in drinking water, after implantation (scheme 2), day 15
[14] = 25 mg/kg per os in drinking water, prior and after implantation (scheme 1), day 1
[15] = 25 mg/kg per os in drinking water, prior and after implantation (scheme 1), day 7
[16] = 25 mg/kg per os in drinking water, prior and after implantation (scheme 1), day 15
[17] = 25 mg/kg, after implantation (scheme 2)
[18] = 25 mg/kg, prior and after implantation (scheme 1)

Structure (SMILES) | Tumor volume (Lewis carcinoma; [3]) | Tumor volume (Lewis carcinoma; [4]) | Tumor volume (Lewis carcinoma; [5]) | Tumor volume (Lewis carcinoma; [6]) | Tumor volume (Lewis carcinoma; [7]) | Tumor volume (Lewis carcinoma; [8]) | Number of lung metastases (Lewis carcinoma; [9]) | Number of lung metastases (Lewis carcinoma; [10]) | Tumor volume (Lewis carcinoma; [11]) | Tumor volume (Lewis carcinoma; [12]) | Tumor volume (Lewis carcinoma; [13]) | Tumor volume (Lewis carcinoma; [14]) | Tumor volume (Lewis carcinoma; [15]) | Tumor volume (Lewis carcinoma; [16]) | Number of lung metastases (Lewis carcinoma; [17]) | Number of lung metastases (Lewis carcinoma; [18]) | Growth of Lewis carcinoma in mice (Lewis carcinoma) | Preventive effect in relation to hepatic tumors [1] | Weight of rats [1] | Number of animals with induced tumors [1] | also measured
O=C1CSC(=S)N1CCc1ccccc1 [Product 1] | 52 ± 17 mm^3 | 708 ± 86 mm^3 | 1826 ± 196 (P < 0.05) mm^3 | 40 ± 15 mm^3 | 715 ± 103 mm^3 | 1597 ± 133 (P < 0.01)^2 mm^3 | 32.8 ± 8.1 | 42.2 ± 7.1 | 60 ± 19 mm^3 | 812 ± 153 mm^3 | 1437 ± 325 (P < 0.01) mm^3 | 101 ± 29 mm^3 | 671 ± 104 mm^3 | 1225 ± 214 (P < 0.01) mm^3 | 20.3 ± 4.2 (P < 0.01)^2 | 33.1 ± 9.1 | able to inhibit growth | have preventive effect | 146.4 ± 3.57 g | 15 | Number of hepatic tumors [1]: 15.1 ± 2.88; Anti-proliferative effect [2]: anti-proliferative effect
O=C1CSC(=S)N1CCc1ccncc1 [Product 2] | 49 ± 15 mm^3 | 702 ± 92 mm^3 | 1806 ± 203 (P < 0.05) mm^3 | 39 ± 13 mm^3 | 706 ± 99 mm^3 | 1588 ± 127 (P < 0.01)^3 mm^3 | 33.3 ± 7.8 | 43.4 ± 6.5 | 70 ± 14 mm^3 | 827 ± 140 mm^3 | 1459 ± 299 (P < 0.01) mm^3 | 98 ± 95 mm^3 | 650 ± 97 mm^3 | 1204 ± 226 (P < 0.01) mm^3 | 19.0 ± 5.1 (P < 0.01)^3 | 34.2 ± 8.9 | able to inhibit growth | have preventive effect | 145.9 ± 1.26 g | 15 | Number of hepatic tumors [1]: 16.6 ± 3.12

— patent publication US9949961B2, “Agent for the prophylaxis and/or treatment of neoplastic diseases” (priority 2013, dated 2018)
